From patent US6153589A, “2,3-epoxy alcohols, acids and derivatives as anti retroviral chemotherapeutic agents” (The United States of America as represented by the …, priority 1992, dated 2000)

How the values were obtained:
HIV-2 protease = assay: HIV protease cleavage of nonapeptide (HPLC); assay type: biochemical; settings: 0.5 μl of 10 μg/μl inhibitor in DMSO per 10 μl reaction; pH 6.5, room temperature; pentapeptide product relative to DMSO control; sampled at ca. 16 and 40 hr (time not given)
Outline: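 Nonapeptide substrate Val-Ser-Gln-Asn-Tyr-Pro-Ile-Val-Gln-NH2 incubated with protease (ca. 100 ng) in 200 mM sodium phosphate, 1 M NaCl, 5% glycerol, 0.25% NP-40, pH 6.5, at room temperature with inhibitor added from a 10 μg/μl DMSO stock. Samples taken at ca. 16 and 40 h; RP-HPLC (206 nm) measured pentapeptide product relative to DMSO control.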

porcine Renin = biological target: T1, porcine Renin (Sus scrofa, UniProt A0A287APG1); assay: Porcine Renin cleavage of porcine tetradecapeptide (HPLC); assay type: biochemical; settings: 0.5 μl of 50 μg/μl inhibitor in DMSO in 50 μl; pH 6.00, room temperature, 70 min; relative to uninhibited control
T1 construct: purchased Sigma
Excerpt: Renin Activity: Porcine Renin Cleavage of Porcine Tetradecapeptide
Proteolytic enzymes are ubiquitous in many living systems. Renin is an asparxyl protease found in mammals which is responsible for the regulation of blood pressure. Structural and functional similarities between Renin and retroviral proteases have been previously noted (Pearl, L. H., Taylor, W. R., (1987) Nature, 329, 351-354). Consequently, successful therapeutic inhibition of retroviral proteases depends on the ability of the inhibitor to inhibit the retroviral enzyme while having a greatly diminished effect on normally occurring enzymes like Renin. The failure to inhibit the desired enzyme selectively may have an adverse effect on normal biochemical functions. The similarity of Renin to retroviral proteases and its viral normal bodily function makes it an attractive system in which to examine inhibitory selectivity.
Renin activity was determined by a method similar to that described above for the HIV protease. A solution containing 0.37 m unit (0.5 μl of stock solution containing 0.75 m unit/μl) of porcine Renin (Sigma) was added to 5 μg of porcine angiotensinogen in 50 μl of 0.1 M citrate-phosphate buffer (pH 6.00) containing 0.25% NP-40. A DMSO solution containing the inhibitor (0.5 μl of a 50 μg/μl solution) was added and the reaction was allowed to incubate at room temperature for 70 min. The entire mixture was analyzed by HPLC chromatographic analysis was perforemd on a 4.6×250 mm Lichrosorb RP-18 column eluting with a gradient of 0-50% acetonitrile in 0.02 M KH2 Po4 (pH 4.7) over 30 min monitoring absorbance at 206 nm. Appearance of both the tetrapeptide and the decapeptide products may be monitored under these conditions. Enzyme activity is expressed as the amount of tetrapeptide produced relative to an uninhibited control, and are summarized in Table 3 below.

[1] = literature report; cited from earlier work
fatty acid synthesis = settings: literature report; cited from earlier work
Murine Leukemia Virus = settings: in vitro; literature report; cited from earlier work
Rous Sarcoma Virus = settings: in vitro; literature report; cited from earlier work
HIV infected cells = settings: literature report; cited from earlier work

T1 sequence (A0A287APG1 24-407): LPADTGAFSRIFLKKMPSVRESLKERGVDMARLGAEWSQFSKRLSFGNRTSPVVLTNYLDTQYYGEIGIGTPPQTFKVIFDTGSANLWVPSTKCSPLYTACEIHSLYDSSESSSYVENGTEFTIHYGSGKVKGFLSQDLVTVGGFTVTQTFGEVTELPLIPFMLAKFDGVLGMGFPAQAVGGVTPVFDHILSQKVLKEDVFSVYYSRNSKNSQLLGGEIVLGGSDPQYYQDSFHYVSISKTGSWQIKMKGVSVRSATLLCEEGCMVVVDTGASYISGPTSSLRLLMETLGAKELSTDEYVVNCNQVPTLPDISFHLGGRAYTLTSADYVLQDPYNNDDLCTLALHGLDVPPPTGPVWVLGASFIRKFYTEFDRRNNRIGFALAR

In the case of C/C=C/C/C=C/CCC(=O)[C@H]1O[C@H]1C(N)=O [Cerulenin, 4-Oxo-2R,3S-epoxy-trans,trans-2,5-dodecadienyl amide], the “Percent Control Cleavage of Nonapeptide HIV-1 Cleavage Site Fragment” value (HIV-2 protease) is listed as 10%, the “Percent control (tetrapeptide produced)” value (porcine Renin) is listed as 68% and the toxicity [1] is listed as “relatively high toxicity”. The “inhibition of fatty acid synthesis” value (fatty acid synthesis) was “potent inhibitor of fatty acid synthesis”, the “antiretroviral activity against Murine Leukemia Virus” value (Murine Leukemia Virus) was “exhibit antiretroviral activity” and the “antiretroviral activity against Rous Sarcoma Virus” value (Rous Sarcoma Virus) was “exhibit antiretroviral activity”. The “inhibition of viral polyprotein processing” value (HIV infected cells) was “inhibit viral polyprotein processing”.
